Measurements taken from ChEMBL document CHEMBL3797052 (Eur J Med Chem, 2016).

Columns and labels:
[1] = Antiproliferative activity against human DU145 cells assessed as growth inhibition after 48 hrs by sulforhodamine B assay; assay type: functional; settings: DU-145, 48 h; for CC50: read-out: LC50 (the source's name)
[2] = Antiproliferative activity against human RXF393 cells assessed as growth inhibition after 48 hrs by sulforhodamine B assay; assay type: functional; settings: RXF 393, 48 h; for CC50: read-out: LC50 (the source's name)
[3] = Antiproliferative activity against human SF295 cells assessed as growth inhibition after 48 hrs by sulforhodamine B assay; assay type: functional; settings: SF-295, 48 h; for CC50: read-out: LC50 (the source's name)
NCI-H23 = assay: Antiproliferative activity against human NCI-H23 cells assessed as growth inhibition after 48 hrs by sulforhodamine B assay; assay type: functional; settings: NCI-H23, 48 h
[4] = Antiproliferative activity against human OVCAR4 cells assessed as growth inhibition after 48 hrs by sulforhodamine B assay; assay type: functional; settings: OVCAR-4, 48 h; for CC50: read-out: LC50 (the source's name)
NCI-H226 [5] = assay: Antiproliferative activity against human NCI-H226 cells assessed as growth inhibition after 48 hrs by sulforhodamine B assay; assay type: functional; settings: NCI-H226, 48 h; for CC50: read-out: LC50 (the source's name)
[6] = Antiproliferative activity against human RPMI8226 cells assessed as growth inhibition after 48 hrs by sulforhodamine B assay; assay type: functional; settings: RPMI-8226, 48 h
786-0 [7] = assay: Antiproliferative activity against human 786-0 cells assessed as cell growth at […] after 48 hrs by sulforhodamine B assay; assay type: functional; settings: 786-0, 48 h, read-out: Activity
786-0 [8] = assay: Antiproliferative activity against human 786-0 cells assessed as cell growth at 10^-7 M after 48 hrs by sulforhodamine B assay; assay type: functional; settings: 786-0, 48 h, read-out: Activity
M14 = assay: Antiproliferative activity against human M14 cells assessed as cell growth at 10^-6 M after 48 hrs by sulforhodamine B assay; assay type: functional; settings: M14, 48 h, read-out: Activity
[9] = Antiproliferative activity against human SKOV3 cells assessed as cell growth at 10^-4 M after 48 hrs by sulforhodamine B assay; assay type: functional; settings: SK-OV-3, 48 h, read-out: Activity
[10] = Antiproliferative activity against human IGROV1 cells assessed as cell growth at 10^-7 M after 48 hrs by sulforhodamine B assay; assay type: functional; settings: IGROV-1, 48 h, read-out: Activity
[11] = Antiproliferative activity against human HCT15 cells assessed as cell growth at 10^-6 M after 48 hrs by sulforhodamine B assay; assay type: functional; settings: HCT-15, 48 h, read-out: Activity
[12] = Antiproliferative activity against human RPMI8226 cells assessed as cell growth at 10^-8 M after 48 hrs by sulforhodamine B assay; assay type: functional; settings: RPMI-8226, 48 h, read-out: Activity
[13] = Antiproliferative activity against human HOP92 cells assessed as cell growth at 10^-8 M after 48 hrs by sulforhodamine B assay; assay type: functional; settings: HOP-92, 48 h, read-out: Activity
CYP3A4 = CYP3A4 (Homo sapiens, UniProt P08684); assay: Inhibition of recombinant human CYP3A4 assessed as remaining enzyme activity using CYP3A4 blue as substrate at 10 uM after 5 mins in presence of NADP by fluorescence plate reader analysis; assay type: ADME; settings: recombinant human CYP3A4, probe CYP3A4 blue, read-out: Activity
CYP3A4, sequence (P08684 whole entry): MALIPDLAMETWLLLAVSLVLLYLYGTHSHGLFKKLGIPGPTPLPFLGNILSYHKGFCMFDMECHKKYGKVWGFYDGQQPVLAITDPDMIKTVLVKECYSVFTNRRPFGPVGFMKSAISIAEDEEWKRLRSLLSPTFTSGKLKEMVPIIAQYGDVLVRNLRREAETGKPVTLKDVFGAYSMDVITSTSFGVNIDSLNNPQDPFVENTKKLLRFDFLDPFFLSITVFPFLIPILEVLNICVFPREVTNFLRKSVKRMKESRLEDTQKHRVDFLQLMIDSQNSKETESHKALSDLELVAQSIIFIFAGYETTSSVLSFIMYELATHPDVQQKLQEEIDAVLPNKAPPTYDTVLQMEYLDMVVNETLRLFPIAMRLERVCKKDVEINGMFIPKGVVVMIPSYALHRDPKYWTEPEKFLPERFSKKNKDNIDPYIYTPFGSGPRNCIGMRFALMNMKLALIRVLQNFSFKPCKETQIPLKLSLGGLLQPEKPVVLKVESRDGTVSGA

[14] = Antiproliferative activity against human Hs 578T cells assessed as cell growth at 10^-7 M after 48 hrs by sulforhodamine B assay; assay type: functional; settings: read-out: Activity
[15] = Antiproliferative activity against human UACC62 cells assessed as cell growth at 10^-7 M after 48 hrs by sulforhodamine B assay; assay type: functional; settings: UACC-62, 48 h, read-out: Activity
[16] = Antiproliferative activity against human HOP92 cells assessed as cell growth at 10^-4 M after 48 hrs by sulforhodamine B assay; assay type: functional; settings: HOP-92, 48 h, read-out: Activity
NCI-H226 [17] = assay: Antiproliferative activity against human NCI-H226 cells assessed as cell growth at 10^-7 M after 48 hrs by sulforhodamine B assay; assay type: functional; settings: NCI-H226, 48 h, read-out: Activity
[18] = Antiproliferative activity against human UO31 cells assessed as cell growth at 10^-8 M after 48 hrs by sulforhodamine B assay; assay type: functional; settings: UO-31, 48 h, read-out: Activity
[19] = Antiproliferative activity against human Caki1 cells assessed as cell growth at 10^-6 M after 48 hrs by sulforhodamine B assay; assay type: functional; settings: CAKI-1, 48 h, read-out: Activity
[20] = Antiproliferative activity against human IGROV1 cells assessed as cell growth at 10^-6 M after 48 hrs by sulforhodamine B assay; assay type: functional; settings: IGROV-1, 48 h, read-out: Activity
[21] = Antiproliferative activity against human Hs 578T cells assessed as cell growth at 10^-8 M after 48 hrs by sulforhodamine B assay; assay type: functional; settings: read-out: Activity
[22] = Antiproliferative activity against human RXF393 cells assessed as cell growth at 10^-7 M after 48 hrs by sulforhodamine B assay; assay type: functional; settings: RXF 393, 48 h, read-out: Activity
A498 = assay: Antiproliferative activity against human A498 cells assessed as cell growth at 10^-6 M after 48 hrs by sulforhodamine B assay; assay type: functional; settings: A498, 48 h, read-out: Activity
[23] = Antiproliferative activity against human Hs 578T cells assessed as cell growth at 10^-6 M after 48 hrs by sulforhodamine B assay; assay type: functional; settings: read-out: Activity
HT-29 = assay: Antiproliferative activity against human HT-29 cells assessed as cell growth at 10^-7 M after 48 hrs by sulforhodamine B assay; assay type: functional; settings: HT-29, 48 h, read-out: Activity
KM12 = assay: Antiproliferative activity against human KM12 cells assessed as cell growth at 10^-7 M after 48 hrs by sulforhodamine B assay; assay type: functional; settings: KM12, 48 h, read-out: Activity
[24] = Antiproliferative activity against human RPMI8226 cells assessed as cell growth at 10^-7 M after 48 hrs by sulforhodamine B assay; assay type: functional; settings: RPMI-8226, 48 h, read-out: Activity
MDA-MB-468 = assay: Antiproliferative activity against human MDA-MB-468 cells assessed as cell growth at 10^-6 M after 48 hrs by sulforhodamine B assay; assay type: functional; settings: MDA-MB-468, 48 h, read-out: Activity
[25] = Antiproliferative activity against human DU145 cells assessed as cell growth at 10^-4 M after 48 hrs by sulforhodamine B assay; assay type: functional; settings: DU-145, 48 h, read-out: Activity
[26] = Antiproliferative activity against human SF295 cells assessed as cell growth at 10^-8 M after 48 hrs by sulforhodamine B assay; assay type: functional; settings: SF-295, 48 h, read-out: Activity
[27] = Antiproliferative activity against human HCT116 cells assessed as cell growth at 10^-7 M after 48 hrs by sulforhodamine B assay; assay type: functional; settings: HCT-116, 48 h, read-out: Activity
[28] = Antiproliferative activity against human Caki1 cells assessed as cell growth at 10^-7 M after 48 hrs by sulforhodamine B assay; assay type: functional; settings: CAKI-1, 48 h, read-out: Activity
[29] = biological target: RAF proto-oncogene serine/threonine-protein kinase (Homo sapiens, UniProt P04049); assay: Inhibition of human CRAF at 10 uM measured after 40 mins by scintillation counting
RAF proto-oncogene serine/threonine-protein kinase, sequence (P04049 whole entry): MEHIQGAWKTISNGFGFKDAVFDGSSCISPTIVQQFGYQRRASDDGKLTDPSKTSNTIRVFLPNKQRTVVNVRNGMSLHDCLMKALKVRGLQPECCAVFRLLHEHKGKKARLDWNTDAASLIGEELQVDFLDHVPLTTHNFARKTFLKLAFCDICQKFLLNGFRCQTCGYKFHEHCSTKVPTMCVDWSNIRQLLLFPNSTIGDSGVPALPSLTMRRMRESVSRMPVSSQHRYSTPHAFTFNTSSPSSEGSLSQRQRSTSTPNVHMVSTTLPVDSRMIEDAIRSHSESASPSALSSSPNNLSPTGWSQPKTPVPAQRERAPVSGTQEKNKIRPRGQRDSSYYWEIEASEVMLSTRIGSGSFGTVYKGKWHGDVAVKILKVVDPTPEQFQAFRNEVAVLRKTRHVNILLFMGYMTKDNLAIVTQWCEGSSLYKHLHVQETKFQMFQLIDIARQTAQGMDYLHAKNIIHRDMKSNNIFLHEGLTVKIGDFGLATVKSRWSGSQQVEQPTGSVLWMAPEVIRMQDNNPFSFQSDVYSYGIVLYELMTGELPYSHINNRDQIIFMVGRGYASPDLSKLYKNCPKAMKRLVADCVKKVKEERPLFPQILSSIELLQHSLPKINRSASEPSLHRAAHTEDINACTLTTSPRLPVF

CNC(=O)c1cc(Oc2ccc(NC(=O)Nc3ccc(Cl)c(C(F)(F)F)c3)cc2)ccn1 [SORAFENIB]
GI50 [1]: 3.16 µM
TGI [1]: 10 µM
CC50 [1]: 50.1 µM
GI50 [2]: 3.16 µM
TGI [2]: 10 µM
CC50 [2]: 39.8 µM
TGI [3]: 5.01 µM
CC50 [3]: 31.6 µM
GI50 (NCI-H23): 2 µM
TGI (NCI-H23): 5.01 µM
GI50 [4]: 3.16 µM
TGI [4]: 12.6 µM
CC50 [4]: 100 µM
GI50 (NCI-H226 [5]): 2 µM
TGI (NCI-H226 [5]): 7.94 µM
CC50 (NCI-H226 [5]): 31.6 µM
TGI [6]: 6.31 µM

CNC(=O)c1cc(Oc2ccc3nc(NC(=O)Nc4cc(C(F)(F)F)cc(C(F)(F)F)c4)sc3c2)ccn1
growth at 100 µM (786-0 [7]): -94%
growth at 0.1 µM (786-0 [8]): 99%
growth at 1 µM (M14): 77%
growth at 100 µM [9]: -84%
growth at 0.1 µM [10]: 89%
growth at 1 µM [11]: 76%
growth at 0.01 µM [12]: 104%
GI50 [1]: 1.25 µM
TGI [1]: 2.98 µM
CC50 [1]: 7.14 µM
growth at 0.01 µM [13]: 102%
activity at 5 min, 10 µM (CYP3A4): 50.6%
growth at 0.1 µM [14]: 100%
growth at 0.1 µM [15]: 93%
growth at 100 µM [16]: -77%
growth at 0.1 µM (NCI-H226 [17]): 87%
growth at 0.01 µM [18]: 95%
growth at 1 µM [19]: 58%
GI50 [2]: 1.25 µM
TGI [2]: 2.99 µM
CC50 [2]: 7.16 µM
growth at 1 µM [20]: 62%
growth at 0.01 µM [21]: 96%
growth at 0.1 µM [22]: 91%
growth at 1 µM (A498): 51%
growth at 1 µM [23]: 73%
GI50 [3]: 1.08 µM
TGI [3]: 2.41 µM
CC50 [3]: 5.38 µM
growth at 0.1 µM (HT-29): 97%
growth at 0.1 µM (KM12): 95%
growth at 0.1 µM [24]: 108%
GI50 (NCI-H23): 0.573 µM
LC50 (NCI-H23): 7.99 µM
TGI (NCI-H23): 2.38 µM
growth at 1 µM (MDA-MB-468): 22%
growth at 100 µM [25]: -89%
GI50 [4]: 0.958 µM
TGI [4]: 2.73 µM
CC50 [4]: 7.58 µM
growth at 0.01 µM [26]: 87%
GI50 (NCI-H226 [5]): 1.45 µM
TGI (NCI-H226 [5]): 3.57 µM
CC50 (NCI-H226 [5]): 8.79 µM
growth at 0.1 µM [27]: 105%
growth at 0.1 µM [28]: 94%
GI50 [6]: 1.02 µM
LC50 [6]: 76.3 µM
TGI [6]: 3.81 µM
inhibition [29]: 77%

CNC(=O)c1cc(Oc2ccc3nc(NC(=O)c4cc(C(F)(F)F)cc(C(F)(F)F)c4)sc3c2)ccn1
growth at 100 µM (786-0 [7]): -71%
growth at 0.1 µM (786-0 [8]): 90%
growth at 1 µM (M14): 94%
growth at 100 µM [9]: -56%
growth at 0.1 µM [10]: 98%
growth at 1 µM [11]: 96%
growth at 0.01 µM [12]: 97%
GI50 [1]: 3.69 µM
TGI [1]: 15.9 µM
CC50 [1]: 65 µM
growth at 0.01 µM [13]: 91%
activity at 5 min, 10 µM (CYP3A4): 72.9%
growth at 0.1 µM [14]: 93%
growth at 0.1 µM [15]: 86%
growth at 100 µM [16]: -41%
growth at 0.1 µM (NCI-H226 [17]): 99%
growth at 0.01 µM [18]: 85%
growth at 1 µM [19]: 88%
GI50 [2]: 2.79 µM
TGI [2]: 8.37 µM
CC50 [2]: 40 µM
growth at 1 µM [20]: 90%
growth at 0.01 µM [21]: 94%
growth at 0.1 µM [22]: 94%
growth at 1 µM (A498): 66%
growth at 1 µM [23]: 94%
GI50 [3]: 2.56 µM
TGI [3]: 10.5 µM
CC50 [3]: 49.6 µM
growth at 0.1 µM (HT-29): 107%
growth at 0.1 µM (KM12): 99%
growth at 0.1 µM [24]: 98%
GI50 (NCI-H23): 3.37 µM
LC50 (NCI-H23): > 100 µM
TGI (NCI-H23): 17.7 µM
growth at 1 µM (MDA-MB-468): 95%
growth at 100 µM [25]: -65%
GI50 [4]: 3.12 µM
TGI [4]: 27.2 µM
CC50 [4]: > 100 µM
growth at 0.01 µM [26]: 93%
GI50 (NCI-H226 [5]): 4.15 µM
TGI (NCI-H226 [5]): 17.4 µM
CC50 (NCI-H226 [5]): 76.2 µM
growth at 0.1 µM [27]: 104%
growth at 0.1 µM [28]: 91%
GI50 [6]: 2.42 µM
LC50 [6]: > 100 µM
TGI [6]: > 100 µM
